In test [1] the target is T1, KIAA1967 DBIRD complex subunit KIAA1967 (Homo sapiens, UniProt Q8N163).
T1 construct: isoTOP-ABPP experiments performed in cell lysates (in vitro); endogenous in cells; host or cells: soluble proteome of human cancer cell lines (MDA-MB-231; Ramos and Jurkat also prepared)
As to the kind of experiment: competitive isoTOP-ABPP. The format is binding. To be noted: for isoTOP-ABPP ratio (R) at liganded lysine Q8N163_K97 / isoTOP-ABPP ratio (R) at liganded lysine Q8N163_K112: 50 uM, in vitro, sol, 231. The method, boiled down:
(§1)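 Lysine engagement is reported as R, the MS1 peak-area ratio of heavy-tagged DMSO to light-tagged compound samples. Final fragment concentrations were 50 μM for activated esters and 100 μM for guanidinylating agents; STP-alkyne probe 0.1 mM, 1 h.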

The target in test [2] is T2, PFKM 6-phosphofructokinase, muscle type (Homo sapiens, UniProt P08237).
T2 construct: isoTOP-ABPP experiments performed in cell lysates (in vitro); endogenous in cells; host or cells: MDA-MB-231 soluble lysate
T2 sequence (P08237 1-780): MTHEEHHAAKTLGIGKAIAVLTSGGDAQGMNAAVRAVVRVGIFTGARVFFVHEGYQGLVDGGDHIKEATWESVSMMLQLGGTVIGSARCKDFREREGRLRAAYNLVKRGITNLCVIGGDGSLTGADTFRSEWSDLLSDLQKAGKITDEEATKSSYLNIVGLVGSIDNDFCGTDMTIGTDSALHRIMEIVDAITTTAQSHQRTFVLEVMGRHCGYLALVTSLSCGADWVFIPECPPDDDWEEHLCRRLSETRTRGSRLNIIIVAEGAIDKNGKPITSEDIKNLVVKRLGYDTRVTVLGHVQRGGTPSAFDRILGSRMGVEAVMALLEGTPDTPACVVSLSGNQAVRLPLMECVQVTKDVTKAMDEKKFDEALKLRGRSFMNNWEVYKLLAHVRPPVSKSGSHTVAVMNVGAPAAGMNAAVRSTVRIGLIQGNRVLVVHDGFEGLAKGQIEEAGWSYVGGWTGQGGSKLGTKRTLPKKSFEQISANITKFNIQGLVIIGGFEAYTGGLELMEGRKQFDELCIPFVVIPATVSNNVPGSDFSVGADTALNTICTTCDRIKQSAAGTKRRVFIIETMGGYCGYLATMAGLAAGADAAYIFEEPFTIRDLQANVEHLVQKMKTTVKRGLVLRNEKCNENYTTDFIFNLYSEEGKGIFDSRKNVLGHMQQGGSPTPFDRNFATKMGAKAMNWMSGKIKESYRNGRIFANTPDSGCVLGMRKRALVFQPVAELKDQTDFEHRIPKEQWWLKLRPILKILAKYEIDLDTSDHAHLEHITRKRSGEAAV
As to the kind of experiment: competitive isoTOP-ABPP. The format is binding. To be noted: for isoTOP-ABPP ratio (R) at liganded lysine P08237_K678: 50 uM, in vitro, sol, 231. In short, it runs like this:
as §1

The structures appear in SMILES notation.

T1 sequence (Q8N163 whole entry, one chain of several): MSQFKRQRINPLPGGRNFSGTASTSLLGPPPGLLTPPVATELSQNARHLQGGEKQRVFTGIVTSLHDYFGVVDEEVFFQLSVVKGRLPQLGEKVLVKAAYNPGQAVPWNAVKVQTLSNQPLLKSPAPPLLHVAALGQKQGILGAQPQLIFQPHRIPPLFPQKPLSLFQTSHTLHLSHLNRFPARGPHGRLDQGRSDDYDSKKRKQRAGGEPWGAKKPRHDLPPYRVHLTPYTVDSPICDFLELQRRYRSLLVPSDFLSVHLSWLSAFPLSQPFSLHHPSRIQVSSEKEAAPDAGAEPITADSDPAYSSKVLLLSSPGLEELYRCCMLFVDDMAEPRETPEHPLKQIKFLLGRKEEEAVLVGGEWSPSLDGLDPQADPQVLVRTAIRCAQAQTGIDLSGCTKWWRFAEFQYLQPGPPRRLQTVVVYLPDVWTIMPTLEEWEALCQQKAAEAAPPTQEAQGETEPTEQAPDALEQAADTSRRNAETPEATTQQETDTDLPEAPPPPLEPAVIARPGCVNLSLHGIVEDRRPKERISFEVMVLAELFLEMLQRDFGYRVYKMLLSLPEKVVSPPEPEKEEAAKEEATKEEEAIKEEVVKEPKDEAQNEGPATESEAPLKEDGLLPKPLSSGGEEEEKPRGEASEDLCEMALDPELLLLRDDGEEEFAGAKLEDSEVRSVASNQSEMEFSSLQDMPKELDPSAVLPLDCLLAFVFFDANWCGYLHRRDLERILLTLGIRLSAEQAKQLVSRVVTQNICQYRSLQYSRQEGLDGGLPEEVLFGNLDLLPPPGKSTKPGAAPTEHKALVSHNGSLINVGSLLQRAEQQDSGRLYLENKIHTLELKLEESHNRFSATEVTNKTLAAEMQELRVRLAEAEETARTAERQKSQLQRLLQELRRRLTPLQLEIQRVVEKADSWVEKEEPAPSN

For the compound `O=C(Oc1ccc([N+](=O)[O-])cc1[N+](=O)[O-])C(c1ccccc1)(c1ccccc1)c1ccccc1` [fragment 42, 2,4-Dinitrophenyl 2,2,2-triphenylacetate], in test [1], the “isoTOP-ABPP ratio (R) at liganded lysine Q8N163_K97” value came to 1.0 and the “isoTOP-ABPP ratio (R) at liganded lysine Q8N163_K112” value was found to be 1.1. For the same compound, in test [2], the “isoTOP-ABPP ratio (R) at liganded lysine P08237_K678” value is given as 0.9.

With `CC(=O)Oc1ccc([N+](=O)[O-])cc1[N+](=O)[O-]` [fragment 43, 2,4-Dinitrophenyl acetate], in test [1], the “isoTOP-ABPP ratio (R) at liganded lysine Q8N163_K97” value is recorded as 0.9 and the “isoTOP-ABPP ratio (R) at liganded lysine Q8N163_K112” value is 1.0. Further, the “isoTOP-ABPP ratio (R) at liganded lysine P08237_K678” value in test [2] is 1.3.

As for `N#Cc1ccc(C(=O)Oc2ccc([N+](=O)[O-])cc2[N+](=O)[O-])cc1` [fragment 44, 2,4-Dinitrophenyl 4-cyanobenzoate], in test [1] (50 uM_231_sol_in vitro), the “isoTOP-ABPP ratio, lysine Q8N163_K97” value came out at 0.8 and the “isoTOP-ABPP ratio, lysine Q8N163_K112” value came to 1.0. The “isoTOP-ABPP ratio, lysine P08237_K678” value in test [2] (50 uM_231_sol_in vitro) was determined as 1.9.

For the compound `O=C(CCc1ccc2c(c1)OCO2)Oc1ccc([N+](=O)[O-])cc1[N+](=O)[O-]` [fragment 45, 2,4-Dinitrophenyl 3-(benzo[d][1,3]dioxol-5-yl)propanoate], in test [1] (50 uM_231_sol_in vitro), the “isoTOP-ABPP ratio, lysine Q8N163_K97” value amounted to 0.8 and the “isoTOP-ABPP ratio, lysine Q8N163_K112” value amounted to 1.2. The “isoTOP-ABPP ratio, lysine P08237_K678” value in test [2] (50 uM_231_sol_in vitro) is reported as 4.8.

As to `O=C(ON1C(=O)CCC1=O)c1cc(C(F)(F)F)cc(C(F)(F)F)c1` [fragment 46, 3,5-Bis(trifluoromethyl)benzoic acid NHS ester], in test [1] (50 uM_231_sol_in vitro), the “isoTOP-ABPP ratio, lysine Q8N163_K97” value came to 0.9 and the “isoTOP-ABPP ratio, lysine Q8N163_K112” value was found to be 1.1. For the same compound, the “isoTOP-ABPP ratio, lysine P08237_K678” value in test [2] (50 uM_231_sol_in vitro) turned out to be 1.3.

Turning to `O=C(Oc1c(F)c(F)c(C(F)(F)F)c(F)c1F)c1cc(C(F)(F)F)cc(C(F)(F)F)c1` [fragment 47, 2,3,5,6-Tetrafluoro-4-(trifluoromethyl)phenyl 3,5-bis(trifluoromethyl)benzoate], in test [1] (50 uM_231_sol_in vitro), the “isoTOP-ABPP ratio, lysine Q8N163_K97” value was 0.9 and the “isoTOP-ABPP ratio, lysine Q8N163_K112” value came to 1.5. In test [2] (50 uM_231_sol_in vitro), the “isoTOP-ABPP ratio, lysine P08237_K678” value turned out to be 0.8.

In the case of `O=C(Oc1c(F)c(F)cc(F)c1F)c1cc(C(F)(F)F)cc(C(F)(F)F)c1` [fragment 48, 2,3,5,6-Tetrafluorophenyl 3,5-bis(trifluoromethyl)benzoate], in test [1] (50 uM_231_sol_in vitro), the “isoTOP-ABPP ratio, lysine Q8N163_K97” value is 0.6 and the “isoTOP-ABPP ratio, lysine Q8N163_K112” value is listed as 1.0. Moreover, the “isoTOP-ABPP ratio, lysine P08237_K678” value in test [2] (50 uM_231_sol_in vitro) stood at 0.9.

Consider `COC(=O)NC(=NC(=O)OCC1c2ccccc2-c2ccccc21)n1cccn1` [fragment 49, N-Methoxycarbonyl-N′-9-fluorenylmethoxycarbonyl-pyrazole-1-carboxamidine], for which, in test [1] (100 uM_231_sol_in vitro), the “isoTOP-ABPP ratio, lysine Q8N163_K97” value is reported as 9.4 and the “isoTOP-ABPP ratio, lysine Q8N163_K112” value turned out to be 20.0. For the same compound, the “isoTOP-ABPP ratio, lysine P08237_K678” value in test [2] (100 uM_231_sol_in vitro) is 5.4.

As for `CC(C)(C)OC(=O)N=C(NC(=O)OC(C)(C)C)n1cccn1` [fragment 50, reference compound], in test [1] (100 uM_231_sol_in vitro), the “isoTOP-ABPP ratio, lysine Q8N163_K97” value was 3.9 and the “isoTOP-ABPP ratio, lysine Q8N163_K112” value was 4.7. For the same compound, in test [2] (100 uM_231_sol_in vitro), the “isoTOP-ABPP ratio, lysine P08237_K678” value was 20.0.

As to `NC(=O)c1cc(C(F)(F)F)cc(C(F)(F)F)c1` [fragment 51, reference compound], in test [1] (50 uM_231_sol_in vitro), the “isoTOP-ABPP ratio, lysine Q8N163_K97” value came to 0.8 and the “isoTOP-ABPP ratio, lysine Q8N163_K112” value was determined as 0.8. In addition, in test [2] (50 uM_231_sol_in vitro), the “isoTOP-ABPP ratio, lysine P08237_K678” value came to 0.8.

The values are drawn from patent publication US20210255193A1, “LYSINE REACTIVE PROBES AND USES THEREOF” (The Scripps Research Institute, priority 2017, published 2021).
